The subject of data set [1] is BV-2 cells. In words: Immunoblotting (NF-kB p65, IκBα, NIK). The data set is classed as cell-based, murine. As to the method:
To assess nuclear translocation of NF-kB, cells were lysed after 20 h using the NE-PER protocol (Thermo Scientific). Using this kit, the cytoplasmic and nuclear protein fractions are separated from each other. To asses IκBα expression, cells were lysed with RIPA buffer. Protein content of the lysates was determined using the modified Lowry assay (Thermo Scientific). Proteins (20 µg) were separated using an Any kD gel (SDS-PAGE) and transferred to a nitrocellulose membrane (BioRad, Temse, Belgium). Aspecific binding sites were blocked for 30 min using TBS + 1% casein (BioRad, Temse, Belgium). Western blot was performed using the following primary polyclonal antibodies overnight (4 °C): anti-p65 NFkB (1/500), anti-IκBα (1/1000) and anti-β-actin (1/1000), β-tubulin (1/4000) and anti-Histon H3.3 (1/5000) were used as loading controls. Goat anti-rabbit-AP antibody was used for detection (1/10,000) (60 min). All antibodies were purchased at Thermo Scientific (Merelbeke, Belgium). Finally, the BCIP/NBT substrate was added and the results were analyzed using the GelDoc EZ imager and Image Lab software (BioRad, Temse, Belgium). TBS buffer was used for washing between the steps.
For orientation: A western blot detects proteins with antibodies after separation by electrophoresis.

The test system of data set [2] is SH-SY5Y neuroblast cells. In words: MTT assay on SH-SY5Y neuroblast cells. The data set is classed as cell-based. As to conditions: n = 6. As to the method: SH-SY5Y neuroblast cells (Sigma-Aldrich, Diegem, Belgium) were grown in F12:MEM (50/50 v/v) medium supplemented with 15% FBS, 1% non-essential amino acids (NEAA), 2 mM L-Glutamine and 1% penicillin/streptomycin solution (Life Technologies, Belgium) in an incubator set at 37 °C and 5% CO2. When confluent, cells were detached using 0.25% Trypsin–EDTA.
SH-SY5Y cells were seeded at a density of 5 × 10^4 cells/well in a 96-well plate and incubated for 24 h. Next, medium was removed and replaced by 200 µL conditioned medium of BV-2 cells which were treated for 20 h with PapRIV. After 24 h incubation, 20 µL MTT reagent (12 mM) was added and incubated for 3 h. Finally, the medium was removed and replaced by 150 µL DMSO and measured at 570 nm with a microplate reader (Thermofisher, Waltham, USA).
On the technique in general: Tetrazolium assays rely on reduction of a dye to a coloured formazan, in cell work by metabolically active cells.

A short description of data set [3]: Ex vivo metabolization in serum, tissue and faeces homogenates. The data set is classed as in vitro ADME, ICR-CD-1 mice. As to conditions: UPLC-UV/MS; for T1/2 / Metabolites: 37 °C; for T1/2: first order kinetics. The protocol: Peptide solution (0.1 mg/mL) was incubated with serum, brain, liver, kidney, colon or faeces homogenate at 37 °C. After 0, 5, 10, 30 and 60 min, aliquots were taken for UPLC-UV/MS analysis. Preparation of the tissue homogenates and UPLC-UV/MS parameters are given in supplementary information (Supplementary methods S3-S4). The half-live was calculated using the following equation:4 T1/2=-ln(2)/Slope where the slope is defined by linear regression assuming first order kinetics.
Supplementary method S3: Tissue homogenate preparation
Preparation of Krebs-Henseleit buffer (pH 7.4) (KH-buffer)
The powdered medium was dissolved in 900 mL water while stirring. To this solution, 0.3790 g CaCl2×2H2O and 2.098 g NaHCO3 was subsequently added while stirring. NaOH or HCl was used to adjust to pH 7.4. This solution was then further diluted to 1000 mL using ultrapure […]
Preparation of tissue homogenates
- The liver (n = 1), kidneys (n = 6), brains (n = 3), colons (n = 4) and faeces (0.196 g) of ICR-CD-1 mice were collected.
- After cleaning and rinsing the tissues using ice-cold KH buffer, the tissues were cut in little pieces and transferred into a 50 mL tube to which 36 mL ice-cold KH buffer was added.
- The tissues were then homogenized with at tissue homogenizer.
- After the larger particles were allowed to settle for about 30 minutes at 5°C, approximately 25 mL of the middle layer was transferred into a 50 mL Falcon tube using a plastic pipette.
- After shaking the homogenates, the homogenates were dispensed into 2 mL Eppendorf tubes, and stored at -35°C until use.
- The protein content of the homogenates were determined using the Pierce Modified Lowry […]
- Just before use, the homogenates were diluted to a protein concentration of 0.6 mg/mL (i.e.
300 µg / 500 µL) with KH buffer.
- Into a 1.5 ml Protein LoBind tube, 900 µl of serum/tissue extract (500 µl of homogenate/serum and 400 µl of KH buffer, pH 7.4) was transferred.
- After temperature-equilibration at 37°C for 15 min while shaking at 750 rpm, 100 µl of peptide solution (0.1 mg/mL) was added followed by continued incubation at 37°C (while shaking), with […] aliquots taken after 0, 5, 10, 30 and 60 minutes.
- The aliquots were immediately transferred into 500 µl Protein LoBind Eppendorf tubes containing 100 µl of 1% V/V trifluoroacetic acid solution in water, heated for 5 minutes at 95°C, and cooled for 30 minutes in an ice-bath.
- The samples were then centrifuged at 16,000 g for 5 minutes at 5°C.
- The supernatants was then analyzed by UPLC-UV/MS.
Supplementary method S4: UPLC-UV/MS parameters ex vivo metabolization
The analytical parameters of the UPLC-UV/MS method for the ex vivo metabolization are given […]
Table 3: Analytical parameters of UPLC method […]
Needle wash H2O/ACN/DMSO (45/45/10), post injection (6 s)
Seal wash Methanol/H2O (10/90)

“And” between values parts separate entries of the source, which are not always exact repeats. Equal entries are not always repeated.

Take “SDLPFEH [PapRIV, heptapeptide (SDLPFEH) quorum sensing peptide originating from the Bacillus cereus group; synthetic, purchased from GL Biochem]”: the NF-kB nuclear translocation entry in data set [1] (20 h, n = 3) is recorded as “increased”. The NIK expression entry in data set [1] (data not shown) is on record as “not observed”. For the same substance, in data set [1] (n = 3), the IκBα levels result was “decreasing”. The “viability of SH-SY5Y cells with conditioned medium of treated BV-2 cells” value in data set [2] (BV-2 treated 20 h, conditioned medium on SH-SY5Y 24 h) was “significant decreased viability”. Besides, in data set [2] (direct peptide treatment), the “toxicity of direct treatment of SH-SY5Y cells” value is “no significant toxic effects”. Also, the T1/2 in data set [3] (mouse brain homogenate 0.6 mg/mL protein in KH buffer pH 7.4, peptide solution 0.1 mg/mL added, 0–60 min) is 522.9 min; in data set [3] (mouse faeces homogenate 0.6 mg/mL protein in KH buffer pH 7.4, peptide solution 0.1 mg/mL added, 0–60 min) it was 89.7 min; in data set [3] (mouse kidney homogenate 0.6 mg/mL protein in KH buffer pH 7.4, peptide solution 0.1 mg/mL added, 0–60 min), 20 min and 19.8 min; in data set [3] (mouse liver homogenate 0.6 mg/mL protein in KH buffer pH 7.4, peptide solution 0.1 mg/mL added, 0–60 min), 285.7 min; in data set [3] (serum (500 µl + 400 µl KH buffer pH 7.4 + 100 µl peptide solution 0.1 mg/mL), shaking 750 rpm, aliquots 0, 5, 10, 30, 60 min) it was 25 min and 24.8 min. Besides, the Metabolites result in data set [3] (mouse brain homogenate, 0–60 min) is given as “DLPFEH, LPFEH”; in data set [3] (mouse faeces homogenate, 0–60 min) it was “DLPFEH”; in data set [3] (mouse kidney homogenate, 0–60 min), “DLPFEH, LPFEH”; in data set [3] (mouse liver homogenate, 0–60 min), “DLPFEH, LPFEH”; in data set [3] (serum, 0–60 min), “DLPFEH, LPFEH, LPFE, LPF, SDLPF, DLPF”. In addition, the “metabolization in colon tissue” value in data set [3] (mouse colon homogenate 0.6 mg/mL protein in KH buffer pH 7.4, 37 °C, 0–60 min) is given as “no metabolization was observed”.

The values above are taken from paper PMC8140105 (Scientific Reports, 2021).
